Assays:
[1] = test system: Phakopsora pachyrhizi (strain with amino acid substitution F129L in the mitochondrial cytochrome b protein); assay: Use Example 2: protective control of soybean rust on soybeans (PHAKPA P6), greenhouse; format: in vivo; details: soybean seedlings inoculated six days after treatment, % diseased leaf area; for % PHAKPA Disease level P6 at 4 ppm: 4 ppm spray; for % PHAKPA Disease level P6 at 16 ppm: 16 ppm spray
Protocol: (§1) The compound was dissolved in a mixture of acetone and/or dimethylsulfoxide and the wetting agent/emulsifier Wettol, which is based on ethoxylated alkylphenoles, in a ratio (volume) solvent-emulsifier of 99 to 1 to give a total volume of 5 ml. Subsequently, water was added to total volume of 100 ml. This stock solution was then diluted with the described solvent-emulsifier-water mixture to the final concentration given in the table below.
(§2) Leaves of potted soybean seedlings were sprayed to run-off with the previously described spray solution, containing the concentration of active ingredient as described below. The plants were allowed to air-dry. The trial plants were cultivated for six days in a greenhouse chamber at 23-27° C. and a relative humidity between 60 and 80%. Then the plants were inoculated with spores of Phakopsora pachyrhizi. The strain used contains the amino acid substitution F129L in the mitochondrial cytochrome b protein conferring resistance to Qo inhibitors. To ensure the success the artificial inoculation, the plants were transferred to a humid chamber with a relative humidity of about 95% and 23 to 27° C. for 24 hr. The trial plants were cultivated for up to 14 days in a greenhouse chamber at 23 to 27° C. and a relative humidity between 60 and 80%. The extent of fungal attack on the leaves was visually assessed as % diseased leaf area, the disease level of untreated controls was usually higher than 85%.
(§3) All test results below are given for the control of phytopathogenic fungi containing the amino acid substitution F129L in the mitochondrial cytochrome b protein conferring resistance to Qo inhibitors.

[2] = test system: Phakopsora pachyrhizi (strain with amino acid substitution F129L in the mitochondrial cytochrome b protein); assay: Use Example 1: protective control of soybean rust on soybeans (PHAKPA P2), greenhouse; format: in vivo; details: soybean seedlings inoculated 2 days after treatment, % diseased leaf area; for % PHAKPA Disease level P2 at 4 ppm: 4 ppm spray; for % PHAKPA Disease level P2 at 16 ppm: 16 ppm spray
Protocol: as §1
as §2, with “active ingredient or their mixture as described” for “active ingredient as described”, “cultivated for 2 days in” for “cultivated for six days in”, “95% and 20 to 24°” for “95% and 23 to 27°”, “20 to 24° C. for” for “23 to 27° C. for”
as §3

| SMILES | % PHAKPA Disease level P6 at 4 ppm [1] [%] | % PHAKPA Disease level P6 at 16 ppm [1] [%] | % PHAKPA Disease level P2 at 4 ppm [2] [%] | % PHAKPA Disease level P2 at 16 ppm [2] [%] |
| --- | --- | --- | --- | --- |
| CO/N=C(/C(=O)OC)c1cccc(C)c1CO/N=C/c1ccccc1 [Compound 1] | 90 | 83 | 100 | 96 |
| CNC(=O)/C(=N/OC)c1cccc(C)c1CO/N=C/c1ccccc1 [Compound 2] | 63 | 15 | 50 | 2 |
| CNC(=O)/C(=N/OC)c1cccc(C)c1CO/N=C/c1ccccc1C(F)(F)F [Compound 3] | 83 | 21 | 36 | 2 |
